“Also recorded” adds a separate entry of the source.
Assays:
[1] = In vivo analysis: FLuc oRNA LNPs, whole body and ex vivo IVIS flux in mice; design: species or system CD-1 or c57BL/6J mice; conditions: 0.5 mg/kg RNA intravenously
Method: Female CD-1 or female c57BL/6J mice ranging from 22-25 g were dosed at 0.5 mg/kg RNA intravenously. Six hours after injection, mice were injected intraperitoneally with 200 μL of D-luciferin at 15 mg/mL concentration. 5 minutes after injection, mice were anesthetized using isoflurane, and placed inside the IVIS Spectrum In Vivo Imaging System (Perkin Elmer) with dorsal side up. Post 10 minutes injection, mice were scanned for luminescence. Mice were euthanized and organs were extracted within 25 minutes of luciferin injection to scan for luminescence in liver, spleen, kidneys, lungs, and heart. Images (FIGS. 33A-B, 34A-B, 35A-B) were analyzed using Living Images (Perkin Elmer) software. Regions of interest were drawn to obtain flux and average radiance and analyzed for biodistribution of protein expression (FIG. 32A-B).

[2] = system: splenic immune cells; test: Cre circular RNA LNPs in Cre reporter (Ai9) mice: tdTomato+ splenic immune cells; format: in vivo; conditions: 0.5 mg/kg RNA intravenously, 48 hr
Method: Circular RNAs encoding Cre recombinase (Cre) are encapsulated into lipid nanoparticles as previously described. Female, 6-8 week old B6.Cg-Gt(ROSA)26Sortm9(CAG-tdTomato)Hze/J (Ai9) mice were dosed with lipid nanoparticles at 0.5 mg/kg RNA intravenously. Fluorescent tdTomato protein was transcribed and translated in Ai9 mice upon Cre recombination, meaning circular RNAs have been delivered to and translated in tdTomato+ cells. After 48 hr, mice were euthanized and the spleens were harvested, processed into a single cell suspension, and stained with various fluorophore-conjugated antibodies for immunophenotyping via flow cytometry.
Ai9 mice (B6.Cg-Gt(ROSA)26Sortm9(CAG-tdTomato)Hze/J, female, 6-8 weeks, n=3 per group) were injected i.v. with 0.5 mg/kg Cre oRNA LNPs or PBS. Ai9 mice transcribe and translate the fluorescent reporter tdTomato upon Cre recombination; meaning cells which are tdTomato+ have successfully been transfected with Cre oRNA.

[3] = system: primary human T cells; test: FLuc oRNA LNP transfection of primary human activated T cells with or without ApoE3; format: cell-based; conditions: 200 ng RNA/well, 24-hour incubation, 4 independent donors
Method: Primary human T cells from independent donors were stimulated with aCD3/aCD28 and allowed to proliferate for 6 days in the presence of human serum and IL-2. Then, 100,000 cells were plated in a 96 well plate and LNPs containing oRNA coding for Firefly Luciferase (FLuc) were added to the cells at 200 ng RNA/well with or without Apolipoprotein E3 (ApoE3). After 24-hour incubation, luminescence was quantified using the Bright-Glo Luciferase Assay System (Promega) according to manufacturer's instructions and background luminescence from cells not treated with LNPs was subtracted. […] (See Example 70 for LNP formulation procedure, e.g., for 10a-27 (5.7A), 10a-26 (5.7A), 10a-27 (4.5D), and 10a-26 (4.5D) LNPs.)

Compound	spleen to liver ratios [1]	proportion of splenic immune cells expressing tdTomato (transfection) [2]	proportion of splenic immune cells expressing tdTomato (transfection) ([2]; 0.5 mg/kg)	proportion of splenic immune cells expressing tdTomato (transfection) ([2]; listed as Lipid 10a-27, 0.5 mg/kg)	Firefly luminescence [3]
CCCCCCCCCOC(=O)CCCCCCCN(CCO)CCCCCCCC(=O)OC(CCCCCCCC)CCCCCCCC [Lipid 15 from Table 10b]	maintaining the desired spleen to liver ratios	effective at delivering circular RNAs to many splenic immune cell subsets in mice			
CCCCCCCCC(CCCCCC)C(=O)OCCCCCCN(CCCCCCOC(=O)C(CCCCCC)CCCCCCCC)CCCn1ccnc1C (centres unmarked) [Lipid 27 from Table 10a, ((3-(2-methyl-1H-imidazol-1-yl)propyl)azanediyl)bis(hexane-6,1-diyl) bis(2-hexyldecanoate)]			significantly higher myeloid and T cell transfection compared with Lipid 93-S14; also recorded: effective at delivering circular RNAs to many splenic immune cell subsets in mice	transfect significantly more splenic immune cells than those made with Lipid 10a-46	generally produced higher luminescence than those containing Lipid 26 from Table 10a (10a-26)
